# Read-outs that look alike come from different tables or passages of the source.
# Tests used:
# [1] = system: Human Peripheral Blood Mononuclear Cell (PBMC); assay: Toxicity on peripheral blood mononuclear cells (MTT); format: cell-based; conditions: for Absorbance 490 nm, replicate 1 / Absorbance 490 nm, replicate 2 / Absorbance 490 nm, replicate 3 / Absorbance 490 nm, replicate 4 / Mean value (absorbance) / Cell viability (%): 24 hrs, MTT; for Cell viability (%): relative to negative control
# Method: General operations: normal peripheral blood cells were isolated by Ficoll to obtain mononuclear cells. The mononuclear cells were rinsed by the PBS for three times, and added with IMDM+10% FBS to prepare suspensions. […] The suspensions were then inoculated into 96-well plates, with each hole containing 25 thousands cells per 100 μL of the culture medium, and cultured overnight at 37° C.
# Treatment: because the proliferation of the PBMCs is very limited and the PBMCs quickly enter a decline phase. Thus, the cell viability was measured by the MTT assay after 24 hrs of culture. […] The group where PBMCs were treated by the sterile deionized water was selected as the negative control group.
# 1. Experimental cells: normal peripheral blood cells were isolated by Ficoll to obtain mononuclear cells. The mononuclear cells were rinsed by the PBS for three times, added with IMDM+10% FBS to prepare suspensions, […].
# 2. […] Then the 96-well plates were transferred into an incubator at 37° C. for culture. […] After another 24 hrs of cultivation, 20 μL of MTT was added to each hole, and the plates were incubated for 3 hrs in the incubator (37° C., 5% CO2). Solution in each hole was then removed and replaced by 150 μL of DMSO.
# [2] = system: human breast carcinoma cell line MCF-7; assay: Inhibition rate at 10 μM versus chemotherapeutic drugs, MCF-7 (MTT); format: cell-based; conditions: MCF7, MCF-7, 10 μM of drug
# From the text: (§1) As a drug for target therapy, the erlotinib is applicable to a third-line treatment of locally advanced or metastatic non-small cell lung cancer when two or more than two chemotherapies are failed. Currently, the gemcitabine is clinically utilized as the drug of the first-line therapy in treating advanced non-small cell lung cancer and the metastatic breast cancer. […] 1. Experimental cell lines and related chemical reagents: sources and cultivation of the human lung adenocarcinoma cells A549, the human lung squamous carcinoma cell line H460, the human breast carcinoma cell line MCF-7 are described in the above. […] Then the 96-well plates were transferred into the incubator (37° C., 5% CO2) for culture. […] The anti-tumor effects of the above drugs were measured by the MTT assay. The number of viable cells in the negative control groups at 0 hr was taken as a basis to calculate the anti-tumor effects.
# [3] = system: human lung adenocarcinoma cells A549; assay: Inhibition rate at 10 μM versus chemotherapeutic drugs, A549 (MTT); format: cell-based; conditions: A549, 10 μM of drug
# From the text: as §1
# [4] = system: human lung squamous carcinoma cell line H460; assay: Inhibition rate at 10 μM versus chemotherapeutic drugs, H460 (MTT); format: cell-based; conditions: NCI-H460, H460, 10 μM of drug
# From the text: as §1
# [5] = system: human liver cancer cells HepG2; assay: MTT growth inhibition of HepG2 cells (IC50); format: cell-based; conditions: 48 hrs of treatment
# Method: (§2) 2. […] Solution in each hole was then removed and replaced by 150 μL of DMSO.
# [6] = system: rat cardiomyocytes; conditions: for Relative ratio of ATP/total protein, Mean value (%) / Relative ratio of ATP/total protein, replicate 1 / Relative ratio of ATP/total protein, replicate 2 / Relative ratio of ATP/total protein, replicate 3: both, SD, rat
# Method: General operations: 1-2 day old neonatal SD rats (female or male) were selected and cardiomyocytes were isolated in sterile condition. […] The cardiotoxicity of the above drugs were represented by a ratio of ATP/total protein. […] The group where […] were treated by the sterile deionized water was selected as the negative control group.
# 1. Experimental cells: 1-2 day old neonatal SD rats (female or male) were selected and sterilized. Then ventricular muscles were collected and digested by trypsin to prepare cardiomyocyte suspensions. The suspensions were cultured in the incubator (37° C., 5% CO2), and primary cardiomyocytes were cultured by differential adhesion.
# 2. […] After another 6 hrs of cultivation, the culture solution in each hole was replaced by the normal culture solution not containing any drugs, and incubated for 42 hrs in the incubator (37° C., 5% CO2). Solution in each hole was then removed, and cells therein were rinsed by the PBS for three times, digested by the trypsin, and gathered into two parts. One part of the cells was utilized to measure the ATP level by the reporter gene assay, and the other part of the cells was utilized to measure the cellular protein concentration by BAC assay. The ratio of ATP (ng) to the protein concentration (μg) was calculated, and the ratio of each experimental group is divided by the ratio of the contrast group to obtain the relative ratio of ATP/total protein, experimental results were listed in Table 4.
# [7] = system: human lung squamous carcinoma cells H460 xenograft; assay: H460 xenograft tumor growth in nude mice; format: in vivo; conditions: 75 mg/kg oral, three times each week
# Method: 1.1 Preparation of experimental animals: 30 nude mice with equal numbers of females and males were fed in normal conditions in the laboratory for between 3 and 5 days.
# Preparation of H460 cells: H460 tumor cells were normally cultured, and diluted using the PBS so as to prepare a suspension of tumor cells having a concentration of 7.5×10^6 tumor cells per milliliter.
# 1.3 Inoculation of tumor cells: the suspension of the tumor cells was fully shaken and 0.2 mL of the suspension was then sucked by a sterile syringe having a capacity of 1 mL. The tumor cells were then inoculated into armpits of the nude mice via subcutaneous injection. The inoculated mice were then fed for between 2 and 3 days in normal conditions. When the tumor tissue grew to a size with a long axis of approximately 3 mm and a short axis of approximately 2 mm, all the nude mice having the tumor tissues were randomly divided into three groups, which were utilized in subsequent administration experiments.
# 2.1 Control group: five male mice and five female mice having tumor tissues were orally administered with ultrapure water for three times each week (respectively at Monday, Wednesday, and Friday afternoons), and the administered volume was 0.3 mL for each time.
# 3.2. Acquisition of sizes of tumor tissues in the nude mice: the sizes of the tumor tissues in the nude mice were measured three times per week (respectively at Monday, Wednesday, and Friday afternoons). An electronic vernier caliper was utilized to measure the long axis and the short axis of the tumor tissues, and an accuracy of the data was 0.01 mm.
# 3.4 Finish time of the experiments: when the tumor tissues in the nude mice of the control group reach an average size of 1000 mm^3 (Volume=long axis×short axis 2×0.5236), the weights and the sizes of the tumor tissues of the nude mice were recorded, and then the experiments were stopped and the nude mice were treated.
# 3.5 Treatment of nude mice when finishing the experiments: the nude mice were killed, arranged according to different groups, and photographed. Six representative mice were selected from each group and photographed. Then the tumor tissues were respectively isolated, weighed, placed at corresponding positions, and photographed.
# [8] = system: human lung squamous carcinoma cells H460; assay: MTT growth inhibition of H460 cells (IC50); format: cell-based; conditions: NCI-H460, 48 hrs of treatment
# Method: as §2
# [9] = system: human breast cancer cells MCF-7; assay: MTT growth inhibition of MCF-7 cells (IC50); format: cell-based; conditions: MCF7, 48 hrs of treatment
# Method: as §2
# [10] = system: human pancreatic cancer cells PANC-1; assay: cells; format: cell-based; conditions: 48 hrs of treatment, MTT, read-out: IC50 on the growth of the PANC-1 cells
# Method: as §2
# [11] = system: human cervical cancer cells HeLa; assay: MTT growth inhibition of HeLa cells (IC50); format: cell-based; conditions: 48 hrs of treatment
# Method: as §2
# [12] = system: human lung adenocarcinoma cells A549; assay: MTT growth inhibition of A549 cells (IC50); format: cell-based; conditions: 48 hrs of treatment
# Method: as §2
# [13] = contrast chemotherapeutic drugs, 10 μM (other concentrations)
structure (smiles),measurement,setting,value
"O=c1[nH]cc(F)c(=O)[nH]1 [5-FU, 5-fluorouracil]","Absorbance 490 nm, replicate 1",[1]; [13],0.493
same,"Absorbance 490 nm, replicate 2",[1]; [13],0.484
same,"Absorbance 490 nm, replicate 3",[1]; [13],0.525
same,"Absorbance 490 nm, replicate 4",[1]; [13],0.461
same,Mean value (absorbance),[1]; [13],0.491
same,Cell viability (%),[1]; [13],61.4%
same,inhibition at 10 µM,[2],15.8%
"Nc1ccn([C@@H]2O[C@H](CO)[C@@H](O)C2(F)F)c(=O)n1 [Gemcitabine, gemcitabine]",inhibition at 10 µM,[3],6.9%
same,inhibition at 10 µM,[4],4.3%
same,inhibition at 10 µM,[2],40.1%
"C[S+]([O-])CCCCN=C=S (centres unmarked) [Sulforaphane, 1-isothiocyanato-4-(methysulfinyl)-butane]",IC50,[5],47.3 µM
same,"Relative ratio of ATP/total protein, Mean value (%)",[6]; 10 μM,89.87%
same,"Relative ratio of ATP/total protein, replicate 1",[6]; 10 μM,90.0%
same,"Relative ratio of ATP/total protein, replicate 2",[6]; 10 μM,88.2%
same,"Relative ratio of ATP/total protein, replicate 3",[6]; 10 μM,91.4%
same,"Relative ratio of ATP/total protein, Mean value (%)",[6]; 30 μM,83.33%
same,"Relative ratio of ATP/total protein, replicate 1",[6]; 30 μM,85.1%
same,"Relative ratio of ATP/total protein, replicate 2",[6]; 30 μM,83.3%
same,"Relative ratio of ATP/total protein, replicate 3",[6]; 30 μM,81.6%
same,"Relative ratio of ATP/total protein, Mean value (%)",[6]; 50 μM,76.03%
same,"Relative ratio of ATP/total protein, replicate 1",[6]; 50 μM,77.5%
same,"Relative ratio of ATP/total protein, replicate 2",[6]; 50 μM,76.7%
same,"Relative ratio of ATP/total protein, replicate 3",[6]; 50 μM,73.9%
same,Tumor volume on 1st day,[7]; day 1,30.55 mm^3
same,Tumor volume on 3rd day,[7]; day 3,78.81 mm^3
same,Tumor volume on 6st day,[7]; day 6,257.8812 mm^3
same,Tumor volume on 8th day,[7]; day 8,389.6022 mm^3
same,Tumor volume on 10th day,[7]; day 10,552.7308 mm^3
same,IC50,[8],34.6 µM
same,"Absorbance 490 nm, replicate 1",[1]; 10 μM,0.702
same,"Absorbance 490 nm, replicate 2",[1]; 10 μM,0.633
same,"Absorbance 490 nm, replicate 3",[1]; 10 μM,0.705
same,"Absorbance 490 nm, replicate 4",[1]; 10 μM,0.593
same,Mean value (absorbance),[1]; 10 μM,0.658
same,Cell viability (%),[1]; 10 μM,82.4%
same,"Absorbance 490 nm, replicate 1",[1]; 30 μM,0.655
same,"Absorbance 490 nm, replicate 2",[1]; 30 μM,0.616
same,"Absorbance 490 nm, replicate 3",[1]; 30 μM,0.58
same,"Absorbance 490 nm, replicate 4",[1]; 30 μM,0.628
same,Mean value (absorbance),[1]; 30 μM,0.620
same,Cell viability (%),[1]; 30 μM,77.6%
same,"Absorbance 490 nm, replicate 1",[1]; 50 μM,0.663
same,"Absorbance 490 nm, replicate 2",[1]; 50 μM,0.621
same,"Absorbance 490 nm, replicate 3",[1]; 50 μM,0.610
same,"Absorbance 490 nm, replicate 4",[1]; 50 μM,0.610
same,Mean value (absorbance),[1]; 50 μM,0.626
same,Cell viability (%),[1]; 50 μM,78.4%
same,Effect on the proliferation of the PBMCs,[1]; Table 3 summary,certain effect on the proliferation of the cells
same,IC50,[9],19.5 µM
same,IC50,[10],6.73 µM
same,IC50,[11],25.8 µM
same,IC50,[12],14.7 µM
"CC(=O)O[C@H]1C(=O)[C@@]2(C)[C@H]([C@H](OC(=O)c3ccccc3)[C@]3(O)C[C@H](OC(=O)[C@H](O)[C@@H](NC(=O)c4ccccc4)c4ccccc4)C(C)=C1C3(C)C)[C@]1(OC(C)=O)CO[C@@H]1C[C@@H]2O [Paclitaxel, paclitaxel]",inhibition at 10 µM,[3],28.8%
same,"Absorbance 490 nm, replicate 1",[1]; [13],0.712
same,"Absorbance 490 nm, replicate 2",[1]; [13],0.743
same,"Absorbance 490 nm, replicate 3",[1]; [13],0.683
same,"Absorbance 490 nm, replicate 4",[1]; [13],0.650
same,Mean value (absorbance),[1]; [13],0.697
same,Cell viability (%),[1]; [13],87.2%
same,inhibition at 10 µM,[4],17.3%
same,inhibition at 10 µM,[2],89.6%
"C#Cc1cccc(Nc2ncnc3cc(OCCOC)c(OCCOC)cc23)c1 [Erlotinib, erlotinib]",inhibition at 10 µM,[3],30.3%
same,inhibition at 10 µM,[4],33.1%
"COc1cccc2c1C(=O)c1c(O)c3c(c(O)c1C2=O)C[C@@](O)(C(=O)CO)C[C@@H]3O[C@H]1C[C@H](N)[C@H](O)[C@H](C)O1 [Adriamycin, adriamycin]",Toxicity on the cardiomyocytes,[6],obvious toxicity on the cardiomyocytes
same,"Relative ratio of ATP/total protein, Mean value (%)",[6]; 10 μM,46.97%
same,"Relative ratio of ATP/total protein, replicate 1",[6]; 10 μM,47.3%
same,"Relative ratio of ATP/total protein, replicate 2",[6]; 10 μM,43.1%
same,"Relative ratio of ATP/total protein, replicate 3",[6]; 10 μM,50.5%
same,"Absorbance 490 nm, replicate 1",[1]; [13],0.482
same,"Absorbance 490 nm, replicate 2",[1]; [13],0.482
same,"Absorbance 490 nm, replicate 3",[1]; [13],0.496
same,"Absorbance 490 nm, replicate 4",[1]; [13],0.530
same,Mean value (absorbance),[1]; [13],0.498
same,Cell viability (%),[1]; [13],62.3%

# Reference: US9655875B2, “Method of treating or preventing tumors using 1-(alkylsulfinyl)-2-isothiocyanatoalkyl-1-alkene” (BEIJING UNIVERSITY OF CHEMICAL TECHNOLOGY, priority 2013, dated 2017)
